Measurements as given in the supplement of paper PMC10307832.

Each cell line was assayed with C[C@@]1(C(=O)Nc2ccc(F)nc2)CCCN1c1nc(Nc2cc(C3CC3)n[nH]2)c2cccn2n1 + CC(=O)Nc1cccc(-n2c(=O)n(C3CC3)c(=O)c3c(Nc4ccc(I)cc4F)n(C)c(=O)c(C)c32)c1 [Trametinib] (partner 0.02 µM) (assay: relative viability (nuclei count vs DMSO), 5 days (fraction); higher = more cells survive). Details: first compound 0.1265 µM.
In short: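 Lung cancer cell lines were seeded in 1536-well plates and dosed by pin tool the next day, with either a single drug or a fixed anchor-drug dose combined with five library-drug doses (not always all listed) spaced in √10 steps. Five days later, one step fixed the cells and stained their nuclei (final 0.05% Triton X-100, 1% formaldehyde, 1 ug/ml Hoechst), and nuclei were counted on 4× images. Relative viability is the nuclei count in treated wells divided by the count in vehicle wells, and each value is the median of duplicate plates.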

| Cell Line | relative viability |
| --- | --- |
| HARA | 0.331 |
| SW 900 | 0.805 |
| HCC-78 | 1.19 |
| NCI-H322M | 0.428 |
| LCLC-97TM1 | 0.0949 |
| NCI-H2009 | 0.314 |

Same assay, conditions: first compound 0.4 µM

| Cell Line | relative viability |
| --- | --- |
| NCI-H2342 | 0.605 |
| NCI-H727 | 0.267 |
| NCI-H1650 | 0.51 |
| NCI-H1993 | 0.534 |
| SW 1573 | 0.368 |
| NCI-H838 | 0.346 |
| LCLC-103H | 0.62 |
| NCI-H520 | 0.523 |
| NCI-H2126 | 0.336 |
| EMC-BAC-2 | 0.443 |
| NCI-H2085 | 0.58 |
| HCC-366 | 0.194 |
| NCI-H1666 | 0.697 |
| NCI-H596 | 0.654 |
| LK-2 | 0.416 |
| NCI-H2087 | 0.15 |
| NCI-H1648 | 0.282 |
| SK-MES-1 | 0.522 |

| Cell Line | relative viability |
| --- | --- |
| H3255 | 0.494 |
| COR-L23 | 0.441 |
| COR-L 105 | 0.439 |
| LOU-NH91 | 0.709 |
| ChaGo-K-1 | 0.81 |
| NCI-H2170 | 0.894 |
| NCI-H2405 | 0.353 |
| HOP-62 | 0.313 |
| HCC-44 | 0.717 |
| NCI-H522 | 0.595 |
| LU99A | 0.399 |
| BEN | 1.04 |
| HARA | 0.483 |
| SW 900 | 0.808 |
| HCC-78 | 0.334 |
| NCI-H322M | 0.334 |
| LCLC-97TM1 | 0.0995 |
| NCI-H2009 | 0.235 |

Same assay, conditions: first compound 1.265 µM

| Cell Line | relative viability |
| --- | --- |
| NCI-H2342 | 0.7 |
| NCI-H727 | 0.221 |
| NCI-H1650 | 0.572 |
| NCI-H1993 | 0.46 |
| SW 1573 | 0.412 |
| NCI-H838 | 0.36 |
| LCLC-103H | 0.69 |
| NCI-H520 | 0.591 |
| NCI-H2126 | 0.415 |
| EMC-BAC-2 | 0.558 |
| NCI-H2085 | 0.636 |
| HCC-366 | 0.178 |
| NCI-H1666 | 0.755 |
| NCI-H596 | 0.748 |
| LK-2 | 0.495 |
| NCI-H2087 | 0.138 |
| NCI-H1648 | 0.39 |
| SK-MES-1 | 0.633 |

| Cell Line | relative viability |
| --- | --- |
| H3255 | 0.628 |
| COR-L23 | 0.269 |
| COR-L 105 | 0.399 |
| LOU-NH91 | 0.755 |
| ChaGo-K-1 | 0.823 |
| NCI-H2170 | 0.992 |
| NCI-H2405 | 0.381 |
| HOP-62 | 0.397 |
| HCC-44 | 1.02 |
| NCI-H522 | 0.586 |
| LU99A | 0.504 |
| BEN | 0.979 |
| HARA | 0.618 |
| SW 900 | 0.572 |
| HCC-78 | 0.327 |
| NCI-H322M | 0.347 |
| LCLC-97TM1 | 0.13 |
| NCI-H2009 | 0.243 |
